Source: ChEMBL document CHEMBL1201862, “PubChem BioAssay data set” (2004)
Activity calls are given as the source filed them.

Experiments:
fMet-Leu-Phe receptor = biological target: T1, fMet-Leu-Phe receptor (Homo sapiens, UniProt P21462); experiment: formyl peptide receptor binders – dose response (AID 519); format: functional
T1 sequence (P21462 whole entry): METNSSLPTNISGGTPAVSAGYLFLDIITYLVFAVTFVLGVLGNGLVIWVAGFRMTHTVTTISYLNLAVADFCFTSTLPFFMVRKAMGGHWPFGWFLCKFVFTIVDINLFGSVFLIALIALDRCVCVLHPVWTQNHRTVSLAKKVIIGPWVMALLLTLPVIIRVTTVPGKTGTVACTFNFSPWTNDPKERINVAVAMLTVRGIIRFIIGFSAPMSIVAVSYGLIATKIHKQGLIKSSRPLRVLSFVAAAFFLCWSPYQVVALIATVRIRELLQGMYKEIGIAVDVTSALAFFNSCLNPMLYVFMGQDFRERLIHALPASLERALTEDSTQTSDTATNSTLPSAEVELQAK

[1] = biological target: T2, Replicative DNA helicase DnaB (Mycobacterium tuberculosis, UniProt P9WMR3); experiment: DnaB intein splicing inhibitors, dose response, biochemical, cell-free fluorescence (AID 449749); format: functional
T2 sequence (P9WMR3 whole entry): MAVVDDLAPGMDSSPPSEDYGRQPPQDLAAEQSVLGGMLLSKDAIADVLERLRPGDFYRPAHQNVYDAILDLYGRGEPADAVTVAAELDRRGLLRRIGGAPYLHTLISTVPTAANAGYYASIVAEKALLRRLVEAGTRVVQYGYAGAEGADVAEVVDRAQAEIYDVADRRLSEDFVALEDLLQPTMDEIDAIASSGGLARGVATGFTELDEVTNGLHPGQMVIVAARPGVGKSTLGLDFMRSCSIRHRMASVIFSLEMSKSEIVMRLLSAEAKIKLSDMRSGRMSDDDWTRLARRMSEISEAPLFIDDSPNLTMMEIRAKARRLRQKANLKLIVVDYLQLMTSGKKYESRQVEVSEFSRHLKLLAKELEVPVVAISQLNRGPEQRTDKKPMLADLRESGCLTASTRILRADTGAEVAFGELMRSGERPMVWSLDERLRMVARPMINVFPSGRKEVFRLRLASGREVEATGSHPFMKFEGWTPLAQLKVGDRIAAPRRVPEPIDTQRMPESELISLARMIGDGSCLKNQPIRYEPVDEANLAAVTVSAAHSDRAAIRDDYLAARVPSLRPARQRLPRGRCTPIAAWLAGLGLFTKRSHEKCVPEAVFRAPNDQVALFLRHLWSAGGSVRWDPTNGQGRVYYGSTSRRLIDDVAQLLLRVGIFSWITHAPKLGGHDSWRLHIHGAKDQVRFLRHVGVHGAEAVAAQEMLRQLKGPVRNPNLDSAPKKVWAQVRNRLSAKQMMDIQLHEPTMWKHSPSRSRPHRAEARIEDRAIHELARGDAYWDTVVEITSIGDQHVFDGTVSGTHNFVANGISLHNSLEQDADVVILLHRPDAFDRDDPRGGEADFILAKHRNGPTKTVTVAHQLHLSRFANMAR

Protein RecA = biological target: T3, Protein RecA (Mycobacterium tuberculosis, UniProt P9WHJ3); experiment: Fluorescence Cell-Free Homogeneous Dose Retest to Identify Inhibitors of RecA-Intein Splicing Activity. [Related pubchem assays (depositor defined):AID2097, AID2223, AID489010, AID492950]; format: functional
T3 sequence (P9WHJ3 whole entry): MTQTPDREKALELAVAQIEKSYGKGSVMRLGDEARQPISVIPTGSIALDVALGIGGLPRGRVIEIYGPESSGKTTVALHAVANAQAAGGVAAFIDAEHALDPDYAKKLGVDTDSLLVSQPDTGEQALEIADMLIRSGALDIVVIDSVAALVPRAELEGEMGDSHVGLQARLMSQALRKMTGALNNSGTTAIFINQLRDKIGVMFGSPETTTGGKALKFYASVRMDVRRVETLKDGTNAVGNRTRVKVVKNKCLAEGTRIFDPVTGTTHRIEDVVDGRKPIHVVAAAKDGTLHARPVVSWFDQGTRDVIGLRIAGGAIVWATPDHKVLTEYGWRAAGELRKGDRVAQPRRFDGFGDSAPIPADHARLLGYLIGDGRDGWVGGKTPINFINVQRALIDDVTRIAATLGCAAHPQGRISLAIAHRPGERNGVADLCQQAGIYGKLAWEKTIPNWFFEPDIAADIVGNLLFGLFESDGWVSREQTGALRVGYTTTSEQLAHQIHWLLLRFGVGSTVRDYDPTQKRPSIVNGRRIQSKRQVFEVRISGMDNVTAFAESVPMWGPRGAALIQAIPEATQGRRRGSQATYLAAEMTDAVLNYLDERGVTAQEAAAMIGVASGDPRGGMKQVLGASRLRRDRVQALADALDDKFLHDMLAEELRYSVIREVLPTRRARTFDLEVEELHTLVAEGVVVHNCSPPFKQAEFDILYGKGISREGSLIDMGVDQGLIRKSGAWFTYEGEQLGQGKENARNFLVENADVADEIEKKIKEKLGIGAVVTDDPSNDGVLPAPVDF

Genome polyprotein = Genome polyprotein (dengue virus type 2, UniProt P29990); experiment: flavivirus cap methylation enzyme inhibition – biochemical, confirmation dose response, primary screen (AID 588689); format: functional
Sequence of Genome polyprotein (P29990 2492-3391 limits assumed): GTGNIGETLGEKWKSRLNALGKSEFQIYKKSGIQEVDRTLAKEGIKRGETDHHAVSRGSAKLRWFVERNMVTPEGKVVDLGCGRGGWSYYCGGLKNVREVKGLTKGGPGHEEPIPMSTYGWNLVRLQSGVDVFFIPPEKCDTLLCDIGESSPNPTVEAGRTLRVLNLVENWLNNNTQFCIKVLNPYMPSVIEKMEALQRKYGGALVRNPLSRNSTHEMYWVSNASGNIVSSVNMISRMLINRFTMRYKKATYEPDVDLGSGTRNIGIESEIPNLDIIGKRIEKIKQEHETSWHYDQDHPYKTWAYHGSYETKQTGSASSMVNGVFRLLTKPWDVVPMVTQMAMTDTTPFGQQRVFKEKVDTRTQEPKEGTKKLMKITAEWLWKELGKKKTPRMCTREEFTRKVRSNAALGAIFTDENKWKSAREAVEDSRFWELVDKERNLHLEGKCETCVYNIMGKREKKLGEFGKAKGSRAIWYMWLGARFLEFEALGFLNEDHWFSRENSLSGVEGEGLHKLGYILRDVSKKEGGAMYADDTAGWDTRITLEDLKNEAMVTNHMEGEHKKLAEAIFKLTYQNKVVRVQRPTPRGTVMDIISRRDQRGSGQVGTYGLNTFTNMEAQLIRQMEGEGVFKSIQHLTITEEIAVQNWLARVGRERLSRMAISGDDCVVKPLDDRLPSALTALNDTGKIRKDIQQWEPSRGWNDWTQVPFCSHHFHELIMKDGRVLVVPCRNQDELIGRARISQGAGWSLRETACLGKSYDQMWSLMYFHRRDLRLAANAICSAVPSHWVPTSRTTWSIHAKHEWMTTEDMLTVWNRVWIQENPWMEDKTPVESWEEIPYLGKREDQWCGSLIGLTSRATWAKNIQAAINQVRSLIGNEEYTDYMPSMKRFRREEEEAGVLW

[2] = biological target: T4, Tyrosyl-DNA phosphodiesterase 2 (Homo sapiens, UniProt O95551); experiment: potency against TDP2 phosphodiesterase activity – biochemical, epi absorbance, IC50, dose response (AID 743297)
T4 sequence (O95551 whole entry): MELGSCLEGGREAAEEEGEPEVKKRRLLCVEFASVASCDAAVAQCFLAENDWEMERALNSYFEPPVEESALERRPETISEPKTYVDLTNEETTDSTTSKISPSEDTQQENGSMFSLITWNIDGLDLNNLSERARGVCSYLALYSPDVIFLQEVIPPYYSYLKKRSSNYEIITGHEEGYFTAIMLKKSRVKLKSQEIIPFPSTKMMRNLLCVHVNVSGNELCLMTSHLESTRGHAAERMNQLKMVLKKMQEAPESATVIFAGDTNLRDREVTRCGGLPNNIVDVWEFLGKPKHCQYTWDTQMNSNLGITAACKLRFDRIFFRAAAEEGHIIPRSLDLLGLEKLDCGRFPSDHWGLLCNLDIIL

[3] = biological target: T5, 1-phosphatidylinositol 4,5-bisphosphate phosphodiesterase gamma-1 (Homo sapiens, UniProt P19174); experiment: Counterscreen for inhibitors of phospholipase C isozymes (PLC-B3): Fluorescence-based biochemical high throughput dose response assay to identify inhibitors of phospholipase C isozymes (PLC-gamma1).
T5 sequence (P19174 whole entry): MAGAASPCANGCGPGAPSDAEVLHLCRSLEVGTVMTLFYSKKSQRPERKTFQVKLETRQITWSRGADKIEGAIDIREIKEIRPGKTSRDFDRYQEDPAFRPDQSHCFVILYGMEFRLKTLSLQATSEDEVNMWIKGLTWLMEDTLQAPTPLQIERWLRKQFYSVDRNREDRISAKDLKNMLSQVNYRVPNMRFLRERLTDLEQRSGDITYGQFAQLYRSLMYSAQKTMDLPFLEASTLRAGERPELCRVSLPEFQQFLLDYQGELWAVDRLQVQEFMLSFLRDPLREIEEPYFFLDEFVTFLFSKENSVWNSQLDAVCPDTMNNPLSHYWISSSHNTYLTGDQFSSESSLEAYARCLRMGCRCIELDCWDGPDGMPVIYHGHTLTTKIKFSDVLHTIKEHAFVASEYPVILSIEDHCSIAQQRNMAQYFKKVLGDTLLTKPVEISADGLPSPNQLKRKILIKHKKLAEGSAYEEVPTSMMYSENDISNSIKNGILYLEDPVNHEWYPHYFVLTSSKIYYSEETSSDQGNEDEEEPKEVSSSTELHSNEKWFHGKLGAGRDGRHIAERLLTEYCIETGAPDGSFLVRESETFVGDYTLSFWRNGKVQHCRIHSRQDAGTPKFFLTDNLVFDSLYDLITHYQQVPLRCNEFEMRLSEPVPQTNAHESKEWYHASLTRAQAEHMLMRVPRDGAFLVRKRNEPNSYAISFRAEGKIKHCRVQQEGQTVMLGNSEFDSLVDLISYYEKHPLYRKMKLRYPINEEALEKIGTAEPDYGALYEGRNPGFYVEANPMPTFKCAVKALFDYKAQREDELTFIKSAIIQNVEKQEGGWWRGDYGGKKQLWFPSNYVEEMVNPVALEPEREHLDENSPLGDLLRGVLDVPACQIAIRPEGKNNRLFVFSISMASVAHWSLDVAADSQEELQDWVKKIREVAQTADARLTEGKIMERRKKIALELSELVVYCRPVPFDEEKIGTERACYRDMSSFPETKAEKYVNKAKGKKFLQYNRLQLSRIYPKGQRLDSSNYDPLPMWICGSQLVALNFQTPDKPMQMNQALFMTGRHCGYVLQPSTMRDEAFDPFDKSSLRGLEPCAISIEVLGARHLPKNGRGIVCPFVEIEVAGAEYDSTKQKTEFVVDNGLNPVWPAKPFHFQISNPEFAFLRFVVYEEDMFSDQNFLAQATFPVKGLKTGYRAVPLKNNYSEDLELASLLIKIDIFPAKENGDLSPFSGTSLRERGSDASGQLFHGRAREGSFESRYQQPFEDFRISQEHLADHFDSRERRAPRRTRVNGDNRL

[4] = biological target: T6, 1-phosphatidylinositol 4,5-bisphosphate phosphodiesterase beta-3 (Homo sapiens, UniProt Q01970); experiment: Fluorescence-based biochemical high throughput dose response assay to identify inhibitors of phospholipase C isozymes (PLC-B3).
T6 sequence (Q01970 whole entry): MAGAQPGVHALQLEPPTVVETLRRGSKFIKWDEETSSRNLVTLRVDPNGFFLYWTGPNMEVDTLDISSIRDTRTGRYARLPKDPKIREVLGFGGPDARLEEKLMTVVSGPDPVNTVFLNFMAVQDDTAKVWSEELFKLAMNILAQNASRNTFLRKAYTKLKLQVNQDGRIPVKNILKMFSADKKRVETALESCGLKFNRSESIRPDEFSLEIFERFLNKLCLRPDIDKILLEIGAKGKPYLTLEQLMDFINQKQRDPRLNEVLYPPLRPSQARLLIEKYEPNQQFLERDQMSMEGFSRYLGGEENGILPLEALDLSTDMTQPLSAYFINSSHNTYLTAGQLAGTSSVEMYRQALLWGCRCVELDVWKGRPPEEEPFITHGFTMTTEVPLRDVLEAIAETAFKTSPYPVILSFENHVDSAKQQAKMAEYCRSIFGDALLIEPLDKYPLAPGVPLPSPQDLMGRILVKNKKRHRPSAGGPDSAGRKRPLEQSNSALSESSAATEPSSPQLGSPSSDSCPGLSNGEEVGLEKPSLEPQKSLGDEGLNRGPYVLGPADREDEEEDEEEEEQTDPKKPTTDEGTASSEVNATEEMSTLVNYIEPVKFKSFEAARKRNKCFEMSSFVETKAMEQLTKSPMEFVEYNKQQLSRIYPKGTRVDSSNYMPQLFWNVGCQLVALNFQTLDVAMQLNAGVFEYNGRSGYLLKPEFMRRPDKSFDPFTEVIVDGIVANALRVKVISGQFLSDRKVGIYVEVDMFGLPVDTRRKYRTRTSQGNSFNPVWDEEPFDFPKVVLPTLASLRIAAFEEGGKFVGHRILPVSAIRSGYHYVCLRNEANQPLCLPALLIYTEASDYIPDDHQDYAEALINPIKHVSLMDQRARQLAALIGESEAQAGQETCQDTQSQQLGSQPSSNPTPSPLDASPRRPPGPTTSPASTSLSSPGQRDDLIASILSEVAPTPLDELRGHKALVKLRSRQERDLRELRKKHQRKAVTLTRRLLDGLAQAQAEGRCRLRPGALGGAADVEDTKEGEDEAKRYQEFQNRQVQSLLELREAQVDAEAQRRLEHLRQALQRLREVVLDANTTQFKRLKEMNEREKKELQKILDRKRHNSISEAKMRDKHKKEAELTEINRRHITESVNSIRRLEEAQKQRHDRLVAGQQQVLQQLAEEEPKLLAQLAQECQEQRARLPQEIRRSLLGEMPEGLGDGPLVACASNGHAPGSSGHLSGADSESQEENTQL

[5] = A549 cell cytotoxicity, dose response, cytotoxicity control, plate reader, cherry-pick, antagonist series (AID 743412); format: functional, cell-based
[6] = toxicity toward HepG2 liver cells – cell-based, plate reader, cherry-pick, antagonist series, cytotoxicity control, dose response (AID 743416); format: functional
[7] = blockers of bursicon-stimulated LGR2 cAMP reporter – cell-based, HEK293, CRE-luciferase reporter, cherry pick, set 2, dose response (AID 743343); format: functional;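 note: transfected cells were stimulated with diluted bursicon conditioned medium after compound addition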
[8] = blockade of melanocortin 4 receptor signaling – cell-based, plate reader, cherry pick, counter-screen for LGR2 antagonist project, dose response (AID 743444); format: functional;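 note: transfected HEK 293 cells stimulated with alpha-MSH peptide; potency of inhibitors of the alpha-MSH evoked signal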

COCCCN1C(=O)C(O)=C(C(=O)c2ccccc2)C1c1ccc2c(c1)OCO2 (centres undefined)
Ki (fMet-Leu-Phe receptor): 29.6 µM (inactive)

COc1cccc(C(c2c(C)nn(-c3ccccc3)c2O)c2c(C)nn(-c3ccccc3)c2O)c1OC
AC50 [1]: 1.25 µM (active)
EC50 (Protein RecA): 0.81 µM (active)
IC50 (Genome polyprotein): 61.1 µM (active)
IC50 [2]: 24.7 µM (inactive)

Cc1oc2cc(O)cc(O)c2c(=O)c1-c1ccc2c(c1)OCCCO2
Ki (fMet-Leu-Phe receptor): > 66.7 µM (inactive)

Cc1ccc(S(=O)(=O)Cc2nc(O)c3ccccc3n2)cc1
IC50 [3]: > 123 µM (inactive)
IC50 [4]: > 123 µM (inactive)

Cc1cc(NC(=O)c2ccccc2)ncc1NC(=O)c1cccs1
IC50 [3]: > 122 µM (inactive)
IC50 [4]: > 122 µM (inactive)

N#C[C@@H]1[C@H](c2ccc(C#Cc3ccccc3F)cc2)[C@@H](CO)N1C(=O)C1CCCC1
AC50 [5]: > 52 µM (inactive)
AC50 [6]: 39.6 µM (active)
AC50 [7]: 8.84 µM (active)
AC50 [8]: 6.34 µM (active)
